Data reported in the supplement of paper PMC10307832.

Legend:
Assay in all cases: relative viability (nuclei count vs DMSO), 5 days (fraction); higher = more cells survive
A-427 = system: A-427
How it was run: (§1)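 One day after seeding in 1536-well plates, lung cancer cell lines were dosed by pin tool. Dosing was either single-drug or a fixed anchor-drug dose plus five library-drug doses (not always all listed) in √10 steps. After 5 days, nuclei were stained in one fix-and-stain step and counted on 4× images, and relative viability is the nuclei count of treated wells over that of vehicle wells, given as the median of duplicate plates.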

COR-L 105 = system: COR-L 105
How it was run: as §1

ChaGo-K-1 = system: ChaGo-K-1
How it was run: as §1

EKVX = system: EKVX
How it was run: as §1

EMC-BAC-2 = system: EMC-BAC-2
How it was run: as §1

EPLC-272H = system: EPLC-272H
How it was run: as §1

HARA = system: HARA
How it was run: as §1

HCC-44 = system: HCC-44
How it was run: as §1

LK-2 = system: LK-2
How it was run: as §1

LU99A = system: LU99A
How it was run: as §1

NCI-H1650 = system: NCI-H1650
How it was run: as §1

NCI-H1734 = system: NCI-H1734
How it was run: as §1

NCI-H1755 = system: NCI-H1755
How it was run: as §1

NCI-H1792 = system: NCI-H1792
How it was run: as §1

NCI-H1993 = system: NCI-H1993
How it was run: as §1

NCI-H2405 = system: NCI-H2405
How it was run: as §1

NCI-H358 = system: NCI-H358
How it was run: as §1

NCI-H460 = system: NCI-H460
How it was run: as §1

NCI-H522 = system: NCI-H522
How it was run: as §1

NCI-H596 = system: NCI-H596
How it was run: as §1

NCI-H647 = system: NCI-H647
How it was run: as §1

RERF-LC-KJ = system: RERF-LC-KJ
How it was run: as §1

SW 900 = system: SW 900
How it was run: as §1

Cc1cn(-c2cc(NC(=O)c3ccc(C)c(Nc4nccc(-c5cccnc5)n4)c3)cc(C(F)(F)F)c2)cn1 [Nilotinib] + CC(=O)Nc1cccc(-n2c(=O)n(C3CC3)c(=O)c3c(Nc4ccc(I)cc4F)n(C)c(=O)c(C)c32)c1 [Trametinib] (partner 0.02 µM)
relative viability (A-427; first compound 0.001 µM): 0.812
relative viability (A-427; first compound 0.003162 µM): 0.567
relative viability (A-427; first compound 0.01 µM): 0.73
relative viability (A-427; first compound 0.03162 µM): 0.522
relative viability (A-427; first compound 0.1 µM): 0.556
relative viability (COR-L 105; first compound 0.001 µM): 0.439
relative viability (COR-L 105; first compound 0.003162 µM): 0.475
relative viability (COR-L 105; first compound 0.01 µM): 0.533
relative viability (COR-L 105; first compound 0.03162 µM): 0.396
relative viability (COR-L 105; first compound 0.1 µM): 0.443
relative viability (ChaGo-K-1; first compound 0.001 µM): 0.824
relative viability (ChaGo-K-1; first compound 0.003162 µM): 1.15
relative viability (ChaGo-K-1; first compound 0.01 µM): 1.03
relative viability (ChaGo-K-1; first compound 0.03162 µM): 0.804
relative viability (ChaGo-K-1; first compound 0.1 µM): 0.869
relative viability (EKVX; first compound 0.001 µM): 0.336
relative viability (EKVX; first compound 0.003162 µM): 0.351
relative viability (EKVX; first compound 0.01 µM): 0.352
relative viability (EKVX; first compound 0.03162 µM): 0.355
relative viability (EKVX; first compound 0.1 µM): 0.734
relative viability (EMC-BAC-2; first compound 0.001 µM): 0.874
relative viability (EMC-BAC-2; first compound 0.003162 µM): 0.697
relative viability (EMC-BAC-2; first compound 0.01 µM): 0.849
relative viability (EMC-BAC-2; first compound 0.03162 µM): 0.604
relative viability (EMC-BAC-2; first compound 0.1 µM): 0.65
relative viability (EPLC-272H; first compound 0.001 µM): 0.289
relative viability (EPLC-272H; first compound 0.003162 µM): 0.233
relative viability (EPLC-272H; first compound 0.01 µM): 0.34
relative viability (EPLC-272H; first compound 0.03162 µM): 0.273
relative viability (EPLC-272H; first compound 0.1 µM): 0.225
relative viability (HARA; first compound 0.001 µM): 0.43
relative viability (HARA; first compound 0.003162 µM): 0.468
relative viability (HARA; first compound 0.01 µM): 0.522
relative viability (HARA; first compound 0.03162 µM): 0.402
relative viability (HARA; first compound 0.1 µM): 0.289
relative viability (HCC-44; first compound 0.001 µM): 0.951
relative viability (HCC-44; first compound 0.003162 µM): 1.03
relative viability (HCC-44; first compound 0.01 µM): 1.21
relative viability (HCC-44; first compound 0.1 µM): 0.774
relative viability (LK-2; first compound 0.001 µM): 0.514
relative viability (LK-2; first compound 0.003162 µM): 0.515
relative viability (LK-2; first compound 0.01 µM): 0.687
relative viability (LK-2; first compound 0.03162 µM): 0.46
relative viability (LK-2; first compound 0.1 µM): 0.608
relative viability (LU99A; first compound 0.001 µM): 0.31
relative viability (LU99A; first compound 0.003162 µM): 0.328
relative viability (LU99A; first compound 0.01 µM): 0.332
relative viability (LU99A; first compound 0.03162 µM): 0.296
relative viability (LU99A; first compound 0.1 µM): 0.242
relative viability (NCI-H1650; first compound 0.001 µM): 0.608
relative viability (NCI-H1650; first compound 0.003162 µM): 0.735
relative viability (NCI-H1650; first compound 0.01 µM): 0.531
relative viability (NCI-H1650; first compound 0.03162 µM): 0.471
relative viability (NCI-H1650; first compound 0.1 µM): 0.327
relative viability (NCI-H1734; first compound 0.001 µM): 0.57
relative viability (NCI-H1734; first compound 0.003162 µM): 0.664
relative viability (NCI-H1734; first compound 0.01 µM): 0.547
relative viability (NCI-H1734; first compound 0.03162 µM): 0.345
relative viability (NCI-H1734; first compound 0.1 µM): 0.349
relative viability (NCI-H1755; first compound 0.001 µM): 0.745
relative viability (NCI-H1755; first compound 0.003162 µM): 0.806
relative viability (NCI-H1755; first compound 0.01 µM): 0.699
relative viability (NCI-H1755; first compound 0.03162 µM): 0.64
relative viability (NCI-H1755; first compound 0.1 µM): 0.556
relative viability (NCI-H1792; first compound 0.001 µM): 0.365
relative viability (NCI-H1792; first compound 0.003162 µM): 0.491
relative viability (NCI-H1792; first compound 0.01 µM): 0.446
relative viability (NCI-H1792; first compound 0.03162 µM): 0.077
relative viability (NCI-H1792; first compound 0.1 µM): 0.162
relative viability (NCI-H1993; first compound 0.001 µM): 0.47
relative viability (NCI-H1993; first compound 0.003162 µM): 0.522
relative viability (NCI-H1993; first compound 0.01 µM): 0.477
relative viability (NCI-H1993; first compound 0.03162 µM): 0.507
relative viability (NCI-H1993; first compound 0.1 µM): 0.494
relative viability (NCI-H2405; first compound 0.001 µM): 0.504
relative viability (NCI-H2405; first compound 0.003162 µM): 0.406
relative viability (NCI-H2405; first compound 0.01 µM): 0.457
relative viability (NCI-H2405; first compound 0.03162 µM): 0.325
relative viability (NCI-H2405; first compound 0.1 µM): 0.327
relative viability (NCI-H358; first compound 0.001 µM): 0.134
relative viability (NCI-H358; first compound 0.003162 µM): 0.143
relative viability (NCI-H358; first compound 0.01 µM): 0.13
relative viability (NCI-H358; first compound 0.03162 µM): 0.116
relative viability (NCI-H358; first compound 0.1 µM): 0.128
relative viability (NCI-H460; first compound 0.003162 µM): 0.127
relative viability (NCI-H460; first compound 0.01 µM): 0.0752
relative viability (NCI-H460; first compound 0.03162 µM): 0.108
relative viability (NCI-H460; first compound 0.1 µM): 0.0424
relative viability (NCI-H522; first compound 0.01 µM): 0.627
relative viability (NCI-H522; first compound 0.03162 µM): 0.671
relative viability (NCI-H522; first compound 0.1 µM): 0.596
relative viability (NCI-H596; first compound 0.001 µM): 0.67
relative viability (NCI-H596; first compound 0.003162 µM): 0.883
relative viability (NCI-H596; first compound 0.01 µM): 0.905
relative viability (NCI-H596; first compound 0.03162 µM): 0.668
relative viability (NCI-H596; first compound 0.1 µM): 0.712
relative viability (NCI-H647; first compound 0.001 µM): 0.363
relative viability (NCI-H647; first compound 0.003162 µM): 0.614
relative viability (NCI-H647; first compound 0.01 µM): 0.352
relative viability (NCI-H647; first compound 0.03162 µM): 0.18
relative viability (NCI-H647; first compound 0.1 µM): 0.254
relative viability (RERF-LC-KJ; first compound 0.001 µM): 0.79
relative viability (RERF-LC-KJ; first compound 0.003162 µM): 0.985
relative viability (RERF-LC-KJ; first compound 0.01 µM): 0.985
relative viability (RERF-LC-KJ; first compound 0.03162 µM): 0.764
relative viability (RERF-LC-KJ; first compound 0.1 µM): 0.811
relative viability (SW 900; first compound 0.003162 µM): 0.973
relative viability (SW 900; first compound 0.03162 µM): 0.76
relative viability (SW 900; first compound 0.1 µM): 0.613
